Reference: US12390482B2, “Neurolytic agents and methods of using and identifying same” (priority 2021, dated 2025)

Columns and labels:
[1] = test system: WT mouse embryonic dorsal root ganglion (DRG) neurons; test: Axon degeneration in cultured WT DRG neurons; format: cell-based; settings: for activity as SARM1 activator (tested compounds): axon degeneration and SARM1 activation assays
Experimental: (§1) DRG neuron culture: Mouse DRG culture was as described previously. Mouse DRGs were dissected at embryonic day 13.5. Approximately 50 ganglia were collected from each embryo and dissociated in 0.05% Trypsin containing 0.02% EDTA (Gibco) at 37° C. for 20 min. The DRG neurons were washed 3 times with DRG culture medium after incubation with Trypsin. Cells were seeded as spot cultures in 96-tissue culture plates (Corning) coated with 0.1 mg/ml poly-D-lysine and 0.1 mg/ml laminin. They were cultured in Neurobasal (Gibco) containing 2% B27 (Invitrogen), 100 ng/ml 2.5S NGF (Harlan Bioproducts), and 1 μM 5-fluoro-2′-deoxyuridine/1 μM uridine. The culture medium was exchanged with fresh DRG culture medium every 2-3 days. Lentiviruses were added 3 days after seeding (DIV3).
[…] After axon transection, bright-field images of distal axons were taken using the Operetta automated imaging system (PerkinElmer). Axon degeneration indexes were calculated from these bright-field images using ImageJ (NIH). The axon degeneration index was calculated as the ratio of fragmented axon areas as previously described. Indexes were calculated as the average of six fields per well.

WT DRG neurons = test: Metabolite measurement by LC-MS/MS in WT DRG neurons; format: cell-based, mouse; settings: neurons pre-treated with FK866 prior to 3-AP addition
Experimental: as §1
Metabolite measurement using LC-MS/MS: Lyophilized samples were reconstituted with 50 μl of 5 mM ammonium formate and centrifuged at 12,000 g for 10 min. Cleared supernatants were transferred to sample vials. Serial dilutions of standards for each metabolite in 5 mM ammonium formate were used for calibration. HPLC-mass spectrometry analysis was performed on an Agilent 1290 Infinity II liquid chromatography system (Agilent Technologies, Santa Clara, CA) with a flexible pump, multisampler, sample cooler and an MCT containing an Atlantis T3 column (2.1×150 mm, 3 μm) and VanGuard guard cartridge (2.1 mm×5 mm, 3 μm) (Waters, Milford, MA), coupled to an Agilent 6470 Triple Quad mass spectrometer (Agilent Technologies, Santa Clara, CA). The mobile phase (0.15 ml/min) was 5 mM ammonium formate in water (A) and 100% methanol (B). The column was equilibrated with 0% B, maintained after injection for 2 min, then a linear gradient to 20% B applied over 4 min. The column was then ramped to 50% B over 2 min, and held at 50% for 2 min, then reverted back to 0% B over the next 5 min and allowed to re-equilibrate at 0% B for 9 min. The total run time was 24 min per sample. […] Raw data were acquired and quantified using MassHunter Workstation software version B.08.00 for 6400 Series Triple Quadrupole (Agilent Technologies, Santa Clara, CA).

sensory neurons = test: Vacor-induced degeneration of sensory neurons; format: cell-based
SARM1 = target: T1, SARM1 (Homo sapiens, UniProt Q6SZW1); test: SARM1 activation assay by PC6 fluorescence; format: biochemical
T1 construct: StrepTag (N); made in house; host or cells: HEK 293T cells stably expressing NRK1
T1 sequence (Q6SZW1 28-724): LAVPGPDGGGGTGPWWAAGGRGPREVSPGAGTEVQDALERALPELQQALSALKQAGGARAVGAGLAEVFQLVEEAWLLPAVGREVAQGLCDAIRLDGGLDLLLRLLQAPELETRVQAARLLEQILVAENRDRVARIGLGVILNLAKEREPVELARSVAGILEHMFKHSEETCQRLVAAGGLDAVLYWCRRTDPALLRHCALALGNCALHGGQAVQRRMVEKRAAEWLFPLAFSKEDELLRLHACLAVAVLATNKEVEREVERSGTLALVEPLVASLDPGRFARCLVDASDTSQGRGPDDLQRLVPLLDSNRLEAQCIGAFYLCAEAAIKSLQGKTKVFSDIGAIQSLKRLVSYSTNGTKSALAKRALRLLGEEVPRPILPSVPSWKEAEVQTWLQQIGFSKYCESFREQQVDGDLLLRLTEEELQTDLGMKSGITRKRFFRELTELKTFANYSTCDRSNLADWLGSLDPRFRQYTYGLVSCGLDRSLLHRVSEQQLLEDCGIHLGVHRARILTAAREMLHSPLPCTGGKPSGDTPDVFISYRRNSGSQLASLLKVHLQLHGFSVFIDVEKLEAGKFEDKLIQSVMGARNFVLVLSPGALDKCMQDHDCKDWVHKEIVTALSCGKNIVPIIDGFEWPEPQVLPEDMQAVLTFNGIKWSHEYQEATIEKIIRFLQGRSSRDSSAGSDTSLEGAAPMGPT
Experimental: SARM1 protein purification from mammalian cells: A HEK 293T cell line stably expressing NRK1 was used to produce SARM1 protein as previously described. In short, plasmid containing N-terminal StrepTag-SARM1 was transfected into NRK1-HEK 293T cells using X-tremeGENE reagent (Millipore Sigma). After 2 days, the cells were harvested and re-suspended with binding buffer (100 mM Tris-HCL pH 8, 150 mM sodium chloride, 0.01% Tween-20 with EDTA-free protease inhibitors (Pierce)). After sonication, cell debris was removed by centrifugation at 15,000×g for 10 minutes. Soluble lysates were then mixed with StrepTactin Megbeads (Cube Biotech) equilibrated with the same binding buffer. After incubation at 4° C. for 60 minutes, beads were washed with washing buffer (25 mM HEPES, pH 7.5 and 150 mM NaCl with EDTA-free protease inhibitors). […]
SARM1 activation assay by PC6 fluorescence: Modified from previous paper, typically, in a mixture of 50 μl, ˜200 ng of SARM1(on-beads) was mixed with 50 μM PC6, 50 μM NAD^+ and 0 to 100 μM of purified 3APMN. The reaction was carried out in a Bio Tek's Cytation 5 plate reader at 25° C. Fluorescence signal, which corresponds to PAD6 formation, was recorded with 405 nm excitation and 520 nm emission wavelengths every 2 minutes. The production rate of PAD6 was calculated based on the fluorescence changes within the first 30 minutes of reaction.

Sarm1 KO DRG neurons = test: Axon degeneration and neuronal death in cultured Sarm1 KO DRG neurons; format: cell-based, mouse
Experimental: as §1
Quantification of axon degeneration: After culture for 7 days, axotomy was performed by cutting DRG axons manually with a razor blade. After axon transection, bright-field images of distal axons were taken using the Operetta automated imaging system (PerkinElmer). Axon degeneration indexes were calculated from these bright-field images using ImageJ (NIH). The axon degeneration index was calculated as the ratio of fragmented axon areas as previously described. Indexes were calculated as the average of six fields per well.

SMILES: O=C(/C=C/c1cccnc1)NCCCCC1CCN(C(=O)c2ccccc2)CC1 [FK866, reference compound]
- effect on neurotoxic actions of 3-AP ([1]; FK866 25, 50 or 100 nM overnight, then 3-AP 300 μM): blocks the neurotoxic actions of 3-AP
- 3-APMN, 3-APAD and cADPR levels in 3-AP treated neurons (WT DRG neurons): 3-APMN and 3-APAD remain at baseline, and cADPR levels do not increase

SMILES: CC(=O)c1ccncc1 [4-acetylpyridine]
- activity as SARM1 activator (tested compounds) [1]: did not work

SMILES: CC(=O)c1ccccn1 [2-acetylpyridine]
- activity as SARM1 activator (tested compounds) [1]: did not work

SMILES: O=C(NCc1cccnc1)Nc1ccc([N+](=O)[O-])cc1 [Vacor, N-(4-Nitrophenyl)-N′-[(pyridin-3-yl)methyl]urea]
- SARM1 dependence of neuron degeneration (sensory neurons; FIG. 6): SARM1-dependent
- effect of local application to neurites (sensory neurons; local application to neurites): causes distal neurite degeneration without harming neuron cell bodies

SMILES: NC(=O)c1cccnc1 [Nam, nicotinamide]
- effect of pretreatment on 3-AP-induced axon degeneration ([1]; Nam 0, 50, 100 or 200 μM overnight, then 3-AP 500 μM): reduces 3-AP-induced axon degeneration in a dose-dependent manner

SMILES: Nc1ccncc1 [4-aminopyridine]
- activity as SARM1 activator (tested compounds) [1]: did not work

SMILES: CC(=O)c1ccc[n+]([C@@H]2O[C@H](COP(=O)([O-])O)[C@@H](O)[C@H]2O)c1 [3-APMN, 3-acetylpyridine mononucleotide]
- EC50 (SARM1): ~44 µM

SMILES: Nc1cccnc1 [3-aminopyridine]
- activity as SARM1 activator (tested compounds) [1]: did not work

SMILES: Nc1ccccn1 [2-aminopyridine]
- axon degeneration ([1]; WT neurons): causes axon degeneration
- axon degeneration (Sarm1 KO DRG neurons): not in Sarm1 KO neurons
